The values that follow come from patent publication US20220249599A1, “TREATMENT OF IMPLANTS WITH ENGINEERED ANTIMICROBIAL AMPHIPHILIC PEPTIDES” (priority 2018, published 2022).

Test [1] relates to Acinetobacter baumannii ATCC BAA-1797 (MDR). The experiment in a line: microbe, parasite or virus in culture. The class given is cell-based. The conditions noted are these: ATCC BAA-1797. The protocol:
(§1) Each peptide was formulated in PBS buffer prior to testing. Peptides of SEQ ID NO:5 and SEQ ID NO:8 were brought up in 100% DMSO with 0.002% polysorbate-80 at 1.28 mg/mL (40× the highest final test concentration of 32 mcg/mL). Final test concentration of DMSO was 2.5% in the assay at the first dilution for those two compounds.
(§2) Mueller Hinton II broth (MHB II; BD; Lot Nos. 6258541 and 7143896) was used for MIC testing of aerobic organisms. 0.002% polysorbate 80 (P80) was added to the test medium.
(§3) MIC values were determined using a broth microdilution procedure described by CLSI (1, 3). Automated liquid handlers (Multidrop 384, Labsystems, Helsinki, Finland; Biomek 2000 and Biomek FX, Beckman Coulter, Fullerton Calif.) were used to conduct serial dilutions and liquid transfers.
(§4) To prepare the drug mother plates, which would provide the serial peptide dilutions for the replicate daughter plates, the wells of columns 2-12 of standard 96-well microdilution plates (Costar 3795) were filled with 150 µl of the designated diluent for each row of peptide.
(§5) The test articles and comparator compounds ([…] at 40× the highest concentration to be tested) were dispensed into the appropriate wells in column 1. The Biomek 2000 was then used to make 2-fold serial dilutions in the mother plates from column 1 through column 11. The wells of Column 12 contained no drug and served as the organism growth control wells for the assay.
(§6) The daughter plates were loaded with 185 μL per well of MHB II using the Multidrop 384. The daughter plates were completed on the Biomek FX instrument which transferred 5 uL of peptide solution from each well of a mother plate to the corresponding well of each daughter plate in a single step. A standardized inoculum of each test organism was prepared per CLSI methods. The inoculum for each organism was dispensed into sterile reservoirs divided by length (Beckman Coulter), and the Biomek 2000 was used to inoculate the plates. Daughter plates were placed on the Biomek 2000 work surface in reverse orientation so that inoculation took place from low to high drug concentration.
(§7) Plates were stacked 3-4 high, covered with a lid on the top plate, placed in plastic bags, and incubated at 35° C. for 16 to 20 hrs. Following incubation, the microplates were removed from the incubator and viewed from the bottom using a plate viewer. […] The MIC was read and recorded as the lowest concentration of peptide that inhibited visible growth of the organism.

Test [2] has as its system Streptococcus pneumoniae ATCC 49619 (QC). In kind it is cell-based. The settings on record: ATCC 49619. Here is the method:
as §1, §2, §3, §4, §5, §6, §7

The test system of test [3] is Streptococcus pyogenes ATCC 49399. The class given is cell-based. The settings on record: ATCC 49399. Here is the method: as §1, §2, §3, §4, §5, §6, §7
The test system of test [4] is Escherichia coli ATCC BAA-2471 (NDM-1). The class given is cell-based. The conditions noted are these: ATCC BAA-2471. Here is the method: as §1, §2, §3, §4, §5, §6, §7
In test [5] the test system is Pseudomonas aeruginosa ATCC BAA-2109 (MDR). The class given is cell-based. The settings on record: ATCC BAA-2109. The protocol: as §1, §2, §3, §4, §5, §6, §7
The subject of test [6] is Staphylococcus aureus ATCC 29213 (MSSA; QC). The class given is cell-based. The settings on record: ATCC 29213. Here is the method: as §1, §2, §3, §4, §5, §6, §7
Test [7] deals with Staphylococcus aureus ATCC 43300 (MRSA). In kind it is cell-based. The conditions noted are these: ATCC 43300. The protocol: as §1, §2, §3, §4, §5, §6, §7
For test [8], the system named is Acinetobacter baumannii ATCC 19606 (non-MDR). The class given is cell-based. The conditions noted are these: ATCC 19606. Here is the method: as §1, §2, §3, §4, §5, §6, §7
Test [9] deals with Escherichia coli ATCC 25922 (QC). The class given is cell-based. The settings on record: ATCC 25922. The protocol:
as §1, §2, §3, §4, §5, §6, §7

Test [10] deals with Staphylococcus aureus NRS382 (USA100; HA-MRSA). In kind it is cell-based. The settings on record: USA100. The protocol:
as §1, §2, §3, §4, §5, §6, §7

For test [11], the system named is Enterococcus faecalis ATCC 700802 (V583 VRE). In kind it is cell-based. The settings on record: ATCC 700802. Here is the method: as §1, §2, §3, §4, §5, §6, §7
For test [12], the system named is Escherichia coli ATCC 35218 (ESBL). In kind it is cell-based. The conditions noted are these: ATCC 35218. The protocol:
as §1, §2, §3, §4, §5, §6, §7

The subject of test [13] is Pseudomonas aeruginosa ATCC 27853 (non-MDR; QC). In kind it is cell-based. The conditions noted are these: ATCC 27853. Here is the method: as §1, §2, §3, §4, §5, §6, §7
Test [14] concerns Enterococcus faecalis ATCC 29212 (VSE; QC). In kind it is cell-based. The settings on record: ATCC 29212. Here is the method: as §1, §2, §3, §4, §5, §6, §7
Test [15] relates to Enterococcus faecium ATCC 51559 (VRE). In kind it is cell-based. The conditions noted are these: ATCC 51559. The protocol:
as §1, §2, §3, §4, §5, §6, §7

Test [16] deals with Klebsiella pneumoniae ATCC BAA-1705 (KPC). In kind it is cell-based. The conditions noted are these: ATCC BAA-1705. The protocol:
as §1, §2, §3, §4, §5, §6, §7

For test [17], the system named is P. aeruginosa strains (PAO1 and 2 clinical isolates). The class given is cell-based. The settings on record: three P. aeruginosa strains, 0.5×MIC exposure. An excerpt:
Each antibiotic was compared for their propensity to select for bacterial resistance phenotypes in vitro.

In test [18] the test system is S. aureus. In words: Periprosthetic joint infection mouse model, implant biofilm CFU burden. The class given is in vivo. The settings on record: intraperitoneal delivery, versus untreated control mice. The protocol:
Periprosthetic joint infection was modeled in a mouse by placing an intra-articular K-wire through the medullary canal of the proximal femur followed by intra-articular inoculation with S. aureus. Animals were treated systemically with an intraperitoneal delivery of cefazolin, rifampin, or the exemplary peptide of SEQ ID NO:1. Intraperitoneal delivery was chosen due to technical difficulties associated with intravenous delivery. Implant sonication and proximal femur homogenate were used to quantify viable bacteria.

Ends that are not written are not given here.

For the compound IRRIIRRIRRIIRRIRRIIRR [SEQ ID NO: 4], the MIC is 8 µg/mL in test [1]; 16 µg/mL in [2]; 16 µg/mL in [3]; 4 µg/mL in test [4]; 4 µg/mL in test [5]; 8 µg/mL in [6]. For the same compound, the MIC in test [7] came out at 4 µg/mL; in test [8], 8 µg/mL; in test [9], 4 µg/mL; in [10], 4 µg/mL; in [11], 8 µg/mL; in test [12], 8 µg/mL. Besides, the MIC in test [13] came out at 8 µg/mL; in [14], 8 µg/mL; in [15], 4 µg/mL; in test [16], 32 µg/mL.

Turning to LL-37 [LL37], the “Time to development of resistance (fold MIC>10)” value in test [17] amounted to 9 days.

As to VWRWVRRVWRWVRR [SEQ ID NO: 6], the MIC was found to be 0.5 µg/mL in test [1]; 8 µg/mL in [2]; 4 µg/mL in test [3]; 1 µg/mL in [4]; 8 µg/mL in test [5]; 0.5 µg/mL in [6]. Further, the MIC in [7] worked out at 0.5 µg/mL; in [8], 0.5 µg/mL; in test [9] it was 2 µg/mL; in [10] it was 0.5 µg/mL; in test [11], 4 µg/mL; in test [12], 1 µg/mL. Moreover, the MIC in test [13] was 16 µg/mL; in [14] it was 2 µg/mL; in test [15], 0.5 µg/mL; in test [16], 4 µg/mL.

Regarding VVRVVRVVVRVVRVVVRVVRV [SEQ ID NO: 8], the MIC was more than 32 µg/mL in test [1]; more than 32 µg/mL in test [2]; 16 µg/mL in [3]; more than 32 µg/mL in test [4]; 16 µg/mL in test [5]; more than 32 µg/mL in test [6]. Besides, the MIC in test [7] was 32 µg/mL; in test [8] it was 32 µg/mL; in test [9], more than 32 µg/mL; in test [10], more than 32 µg/mL; in test [11] it was 4 µg/mL; in [12] it was more than 32 µg/mL. Moreover, the MIC in test [13] is more than 32 µg/mL; in test [14], 4 µg/mL; in [15], 0.25 µg/mL; in [16] it was more than 32 µg/mL.

Take `CO[C@H]1/C=C/O[C@@]2(C)Oc3c(C)c(O)c4c(O)c(c(/C=N/N5CCN(C)CC5)c(O)c4c3C2=O)NC(=O)/C(C)=C\C=C\[C@H](C)[C@H](O)[C@@H](C)[C@@H](O)[C@@H](C)[C@H](OC(C)=O)[C@@H]1C` [Rifampin]: the “Time to development of resistance (fold MIC>10)” value in test [17] was not above 3 days. Also, the “Reduction of implant biofilm CFU burden (sonicate culture)” value in [18] is “comparable reduction in biofilms sonicate as compared to SEQ ID NO:1”.
